Results: PubChem BioAssay AID1963830 (Molecular Pharmacology Branch, DTP, NCI, 2024)

Test system: 922993-354-T-J3-PDC complex spheroid viability
Assay: Anticancer human tumor 922993-354-T-J3-PDC patient-derived endometrial carcinoma cell line growth inhibition [POLQ]
Conditions: for IC50: curve of first compound; for viability, T/C: stronger effect = lower value
Description: Multicellular complex tumor spheroid response to Polymerase (POL) inhibitors (novobiocin, ART-558, RP6685) in combination with a variety of drugs and investigational agents in selected tumor cell lines
The POL inhibitors (novobiocin, ART-558, and RP6685) were evaluated both individually and in combination with standard of care and investigational anticancer small molecules within a complex spheroid model of solid tumors. . Complex spheroids include a stromal component modeled by human endothelial cells (HUVEC) and fibroblasts modeled by human mesenchymal stem cells (MSCs). The concentration ranges selected for each drug and investigational agent were based upon clinically achievable concentrations if the clinical Cmax of the agent was known.
Compounds. The drugs and investigational agents: novobiocin (NSC847541), ART-558 (NSC835418), RP-6685 (NSC848927), peposertib (NSC802822), ceralasertib (NSC780249), elimusertib (NSC800525), camonsertib (NSC841442), AZD-1390 (NSC803789), olaparib (NSC753686), talazoparib (NSC767125), rucaparib (NSC756644), sotorasib (NSC818433), MRTX-1133 (NSC836407), SN-38 (NSC673596), topotecan (NSC609699), epotoside (NSC141540), doxorubicin (NSC123127), gemcitabine (NSC613327), 5-fluorouracil (NSC19893), paclitaxel (NSC125973), vemurafenib (NSC761431), MSA-2 (NSC828583), SN-011 (NSC837082), adavosertib (NSC754352), prexasertib (NSC758257), carboplatin (NSC241240) and oxaliplatin (NSC266046), were obtained from the National Cancer Institute (NCI) Developmental Therapeutics Program Chemical Repository (21). The FDA-approved anticancer drug set is available from the Developmental Therapeutics Program at https://dtp.cancer.gov/organization/dscb/obtaining/. […] The stock solutions were prepared in dimethyl sulfoxide (DMSO, Sigma-Aldrich, St. Louis, MO, cat. D2650), except for the platinum compounds which were prepared in saline (Quality Biological, Gaithersburg, MD, cat. 114-055-101), at 800-fold the tested concentration and stored at -70 degrees C prior to their use. All drugs and investigational agents were tested over a range starting from a high concentration at or near the clinical Cmax and decreasing in half-log increments. If the clinical Cmax for an agent had not been determined, the highest concentration tested was 10 microM, except for SN-38, which was tested at a high concentration of 1 microM.
Cell Culture. All cells were maintained in an incubator at 37 degrees C and 5% CO2 with 95% humidity. The PDC lines were cultured according to standard operating procedures established by the NCI PDMR (https://pdmr.cancer.gov). Table 3 of the manuscript, lists the cell lines along with the number of the three cell types plated to form the mct-spheroids and media for tumor cell growth. After thawing, all PDC lines, except 997537-175-T-J1-PDC and 415267-285-R-J2-PDC, were cultured in Matrigel-coated flasks prepared with a working solution of 1X Ham's F-12 nutrient mix, without supplementation (Thermo Fisher Scientific, cat. 11765054), 100 U/mL penicillin-streptomycin (Thermo Fisher Scientific, cat. 15140122), and 2.5% Matrigel (Corning Inc., Corning, NY, cat. 354248) for the first three passages. The two PDC lines 997537-175-T-J1-PDC and 415267-285-R-J2-PDC were cultured on uncoated flasks. The 857933-349-R-J2-PDC line was cultured in 6C/Colon 1B media containing advanced DMEM/F-12 (Thermo Fisher Scientific, cat. 12634028), 10 mM HEPES (Thermo Fisher Scientific, cat. 15630080), 1X GlutaMAX supplement (Thermo Fisher Scientific, cat. 35050061), 0.1 mg/mL primocin (InvivoGen, San Diego, CA, cat. ant-pm-2), 10% defined fetal bovine serum, heat inactivated (HyClone Laboratories Inc., Logan, UT, cat. SH30070.03HI), 50% L-WRN conditioned media (ATCC, cat. CRL-3276), 1.25 mM N-Acetyl-L-cysteine (Sigma-Aldrich, cat. A9165), 10 mM nicotinamide (Sigma-Aldrich, cat. N0636), 1X B-27 supplement (Thermo Fisher Scientific, cat. 17504044), 1X N-2 supplement (Thermo Fisher Scientific, cat. […]
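Further: spheroids exposed to the agents for one week.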
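Wherever viability, T/C is given: 100% = DMSO vehicle control wells.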

COc1cccc(OCCCN)c1-c1cc(Nc2cnc(C#N)cn2)n[nH]1 + Cc1cccc(N(C)C(=O)C2C(O)CCN2c2nc(C)cc(C(F)(F)F)c2C#N)c1
IC50 (second compound 0.0316 µM): 603 nM | IC50 (second compound 0.1 µM): 585 nM | IC50 (second compound 0.316 µM): 610 nM | IC50 (second compound 1 µM): 599 nM | IC50 (second compound 3.16 µM): 436 nM | IC50 (second compound 10 µM): 140 nM | viability, T/C (second compound 0.0316 µM, first compound 0.00316 µM): 107% | viability, T/C (second compound 0.0316 µM, first compound 0.01 µM): 107% | viability, T/C (second compound 0.0316 µM, first compound 0.0316 µM): 103% | viability, T/C (second compound 0.0316 µM, first compound 0.1 µM): 104% | viability, T/C (second compound 0.0316 µM, first compound 0.316 µM): 89% | viability, T/C (second compound 0.0316 µM, first compound 1 µM): 19.8% | viability, T/C (second compound 0.1 µM, first compound 0.00316 µM): 104% | viability, T/C (second compound 0.1 µM, first compound 0.01 µM): 104% | viability, T/C (second compound 0.1 µM, first compound 0.0316 µM): 103% | viability, T/C (second compound 0.1 µM, first compound 0.1 µM): 97.7% | viability, T/C (second compound 0.1 µM, first compound 0.316 µM): 91.3% | viability, T/C (second compound 0.1 µM, first compound 1 µM): 14.5% | viability, T/C (second compound 0.316 µM, first compound 0.00316 µM): 102% | viability, T/C (second compound 0.316 µM, first compound 0.01 µM): 101% | viability, T/C (second compound 0.316 µM, first compound 0.0316 µM): 101% | viability, T/C (second compound 0.316 µM, first compound 0.1 µM): 98% | viability, T/C (second compound 0.316 µM, first compound 0.316 µM): 93.5% | viability, T/C (second compound 0.316 µM, first compound 1 µM): 17.2% | viability, T/C (second compound 1 µM, first compound 0.00316 µM): 102% | viability, T/C (second compound 1 µM, first compound 0.01 µM): 98.8% | viability, T/C (second compound 1 µM, first compound 0.0316 µM): 103% | viability, T/C (second compound 1 µM, first compound 0.1 µM): 98% | viability, T/C (second compound 1 µM, first compound 0.316 µM): 92.4% | viability, T/C (second compound 1 µM, first compound 1 µM): 16% | viability, T/C (second compound 3.16 µM, first compound 0.00316 µM): 103% | viability, T/C (second compound 3.16 µM, first compound 0.01 µM): 106% | viability, T/C (second compound 3.16 µM, first compound 0.0316 µM): 101% | viability, T/C (second compound 3.16 µM, first compound 0.1 µM): 99.5% | viability, T/C (second compound 3.16 µM, first compound 0.316 µM): 65.1% | viability, T/C (second compound 3.16 µM, first compound 1 µM): 10.7% | viability, T/C (second compound 10 µM, first compound 0.00316 µM): 99.2% | viability, T/C (second compound 10 µM, first compound 0.01 µM): 101% | viability, T/C (second compound 10 µM, first compound 0.0316 µM): 94.3% | viability, T/C (second compound 10 µM, first compound 0.1 µM): 65.5% | viability, T/C (second compound 10 µM, first compound 0.316 µM): 13.2% | viability, T/C (second compound 10 µM, first compound 1 µM): 9.72%
